# PubChem BioAssay (NCI)
#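 Results reflect a 48-hour exposure of cells in 96-well plates to compound at five concentrations. TGI: total growth inhibition.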
# What was measured:
# Test in all cases: NCI anticancer screen, dose series, 48 h
# 786-0 renal = test system: 786-0 renal
# A549 NSCLC = test system: A549 NSCLC
# ACHN renal = test system: ACHN renal
# BT-549 breast = test system: BT-549 breast
# CCRF-CEM leukemia = test system: CCRF-CEM leukemia
# COLO 205 colon = test system: COLO 205 colon
# DLD-1 colon = test system: DLD-1 colon
# DU-145 prostate = test system: DU-145 prostate
# EKVX NSCLC = test system: EKVX NSCLC
# HCC-2998 colon = test system: HCC-2998 colon
# HCT-116 colon = test system: HCT-116 colon
# HCT-15 colon = test system: HCT-15 colon
# HL-60(TB) leukemia = test system: HL-60(TB) leukemia
# HOP-18 NSCLC = test system: HOP-18 NSCLC
# HOP-62 NSCLC = test system: HOP-62 NSCLC
# HOP-92 NSCLC = test system: HOP-92 NSCLC
# HS 578T breast = test system: HS 578T breast
# HT29 colon = test system: HT29 colon
# IGROV1 ovarian = test system: IGROV1 ovarian
# K-562 leukemia = test system: K-562 leukemia
# KM12 colon = test system: KM12 colon
# LXFL 529 NSCLC = test system: LXFL 529 NSCLC
# M14 melanoma = test system: M14 melanoma
# M19-MEL melanoma = test system: M19-MEL melanoma
# MALME-3M melanoma = test system: MALME-3M melanoma
# MCF7 breast = test system: MCF7 breast
# MDA-MB-231 breast = test system: MDA-MB-231 breast
# MDA-MB-435 = test system: MDA-MB-435
# MDA-N = test system: MDA-N
# MOLT-4 leukemia = test system: MOLT-4 leukemia
# NCI-H226 lung = test system: NCI-H226 lung
# NCI-H23 lung = test system: NCI-H23 lung
# NCI-H460 lung = test system: NCI-H460 lung
# NCI-H522 lung = test system: NCI-H522 lung
# NCI/ADR-RES ovarian = test system: NCI/ADR-RES ovarian
# OVCAR-3 ovarian = test system: OVCAR-3 ovarian
# OVCAR-4 ovarian = test system: OVCAR-4 ovarian
# OVCAR-5 ovarian = test system: OVCAR-5 ovarian
# OVCAR-8 ovarian = test system: OVCAR-8 ovarian
# PC-3 prostate = test system: PC-3 prostate
# RPMI-8226 leukemia = test system: RPMI-8226 leukemia
# SF-268 CNS = test system: SF-268 CNS
# SF-295 CNS = test system: SF-295 CNS
# SF-539 CNS = test system: SF-539 CNS
# SK-MEL-2 melanoma = test system: SK-MEL-2 melanoma
# SK-MEL-28 melanoma = test system: SK-MEL-28 melanoma
# SK-MEL-5 melanoma = test system: SK-MEL-5 melanoma
# SK-OV-3 ovarian = test system: SK-OV-3 ovarian
# SN12C renal = test system: SN12C renal
# SNB-19 CNS = test system: SNB-19 CNS
# SNB-75 CNS = test system: SNB-75 CNS
# SR leukemia = test system: SR leukemia
# SW-620 colon = test system: SW-620 colon
# T-47D breast = test system: T-47D breast
# TK-10 renal = test system: TK-10 renal
# U251 CNS = test system: U251 CNS
# UACC-257 melanoma = test system: UACC-257 melanoma
# UACC-62 melanoma = test system: UACC-62 melanoma
# UO-31 renal = test system: UO-31 renal
# CAKI-1 renal = test system: CAKI-1 renal
# DMS 273 small cell lung = test system: DMS 273 small cell lung
# KM20L2 colon = test system: KM20L2 colon
# LOX IMVI melanoma = test system: LOX IMVI melanoma
# RXF 393 renal = test system: RXF 393 renal
# SNB-78 CNS = test system: SNB-78 CNS
# A498 renal = test system: A498 renal
smiles,measurement,setting,value
CC(=O)Nc1ccc(C(=O)NN2C(=O)C(Cl)C2c2cc(Br)ccc2O)cc1 (stereo not given),TGI,786-0 renal,> 100 µM
same,TGI,A549 NSCLC,> 100 µM
same,TGI,ACHN renal,> 100 µM
same,TGI,BT-549 breast,> 100 µM
same,TGI,CCRF-CEM leukemia,> 100 µM
same,TGI,COLO 205 colon,> 100 µM
same,TGI,DLD-1 colon,> 100 µM
same,TGI,DU-145 prostate,> 100 µM
same,TGI,EKVX NSCLC,> 100 µM
same,TGI,HCC-2998 colon,> 100 µM
same,TGI,HCT-116 colon,> 100 µM
same,TGI,HCT-15 colon,> 100 µM
same,TGI,HL-60(TB) leukemia,> 54.2 µM
same,TGI,HOP-18 NSCLC,62 µM
same,TGI,HOP-62 NSCLC,> 100 µM
same,TGI,HOP-92 NSCLC,> 100 µM
same,TGI,HS 578T breast,> 100 µM
same,TGI,HT29 colon,> 100 µM
same,TGI,IGROV1 ovarian,> 100 µM
same,TGI,K-562 leukemia,> 100 µM
same,TGI,KM12 colon,> 100 µM
same,TGI,LXFL 529 NSCLC,> 100 µM
same,TGI,M14 melanoma,45.5 µM
same,TGI,M19-MEL melanoma,33.7 µM
same,TGI,MALME-3M melanoma,> 100 µM
same,TGI,MCF7 breast,> 100 µM
same,TGI,MDA-MB-231 breast,> 100 µM
same,TGI,MDA-MB-435,> 100 µM
same,TGI,MDA-N,> 100 µM
same,TGI,MOLT-4 leukemia,> 100 µM
same,TGI,NCI-H226 lung,36.1 µM
same,TGI,NCI-H23 lung,> 100 µM
same,TGI,NCI-H460 lung,> 48.5 µM
same,TGI,NCI-H522 lung,> 100 µM
same,TGI,NCI/ADR-RES ovarian,> 100 µM
same,TGI,OVCAR-3 ovarian,> 100 µM
same,TGI,OVCAR-4 ovarian,> 100 µM
same,TGI,OVCAR-5 ovarian,> 100 µM
same,TGI,OVCAR-8 ovarian,> 100 µM
same,TGI,PC-3 prostate,> 100 µM
same,TGI,RPMI-8226 leukemia,> 100 µM
same,TGI,SF-268 CNS,> 100 µM
same,TGI,SF-295 CNS,> 100 µM
same,TGI,SF-539 CNS,> 91.9 µM
same,TGI,SK-MEL-2 melanoma,> 100 µM
same,TGI,SK-MEL-28 melanoma,> 100 µM
same,TGI,SK-MEL-5 melanoma,> 100 µM
same,TGI,SK-OV-3 ovarian,> 100 µM
same,TGI,SN12C renal,> 100 µM
same,TGI,SNB-19 CNS,> 100 µM
same,TGI,SNB-75 CNS,> 100 µM
same,TGI,SR leukemia,> 100 µM
same,TGI,SW-620 colon,> 100 µM
same,TGI,T-47D breast,> 100 µM
same,TGI,TK-10 renal,> 100 µM
same,TGI,U251 CNS,> 100 µM
same,TGI,UACC-257 melanoma,> 100 µM
same,TGI,UACC-62 melanoma,> 100 µM
same,TGI,UO-31 renal,32.3 µM
CCOC(=O)C1CCn2c(nc3c2c(=O)n(C)c(=O)n3C)S1 (stereo not given),TGI,A549 NSCLC,> 100 µM
same,TGI,ACHN renal,> 100 µM
same,TGI,CAKI-1 renal,> 100 µM
same,TGI,CCRF-CEM leukemia,> 100 µM
same,TGI,DLD-1 colon,> 100 µM
same,TGI,DMS 273 small cell lung,> 100 µM
same,TGI,EKVX NSCLC,> 100 µM
same,TGI,HCT-116 colon,> 100 µM
same,TGI,HCT-15 colon,> 100 µM
same,TGI,HL-60(TB) leukemia,> 100 µM
same,TGI,HOP-18 NSCLC,> 100 µM
same,TGI,HOP-62 NSCLC,> 100 µM
same,TGI,HT29 colon,> 100 µM
same,TGI,IGROV1 ovarian,> 100 µM
same,TGI,K-562 leukemia,> 100 µM
same,TGI,KM20L2 colon,> 100 µM
same,TGI,LOX IMVI melanoma,> 100 µM
same,TGI,LXFL 529 NSCLC,> 100 µM
same,TGI,M14 melanoma,> 100 µM
same,TGI,MALME-3M melanoma,> 100 µM
same,TGI,MOLT-4 leukemia,> 100 µM
same,TGI,NCI-H226 lung,> 100 µM
same,TGI,NCI-H23 lung,> 100 µM
same,TGI,NCI-H460 lung,> 100 µM
same,TGI,NCI-H522 lung,> 100 µM
same,TGI,OVCAR-3 ovarian,> 100 µM
same,TGI,OVCAR-4 ovarian,> 100 µM
same,TGI,OVCAR-5 ovarian,> 100 µM
same,TGI,OVCAR-8 ovarian,> 100 µM
same,TGI,RPMI-8226 leukemia,> 100 µM
same,TGI,RXF 393 renal,> 100 µM
same,TGI,SF-268 CNS,> 100 µM
same,TGI,SF-295 CNS,> 100 µM
same,TGI,SF-539 CNS,> 100 µM
same,TGI,SK-MEL-2 melanoma,> 100 µM
same,TGI,SK-MEL-5 melanoma,> 100 µM
same,TGI,SK-OV-3 ovarian,> 100 µM
same,TGI,SN12C renal,> 100 µM
same,TGI,SNB-19 CNS,> 100 µM
same,TGI,SNB-75 CNS,> 100 µM
same,TGI,SNB-78 CNS,> 100 µM
same,TGI,SR leukemia,> 100 µM
same,TGI,SW-620 colon,> 100 µM
same,TGI,TK-10 renal,> 100 µM
same,TGI,U251 CNS,> 100 µM
same,TGI,UACC-257 melanoma,> 100 µM
same,TGI,UACC-62 melanoma,> 100 µM
COC(=O)C1Cc2cccc(C)c2C1 (stereo not given),TGI,786-0 renal,> 100 µM
same,TGI,A498 renal,> 100 µM
same,TGI,A549 NSCLC,> 100 µM
same,TGI,ACHN renal,> 100 µM
same,TGI,BT-549 breast,> 100 µM
same,TGI,CAKI-1 renal,> 100 µM
same,TGI,CCRF-CEM leukemia,> 100 µM
same,TGI,COLO 205 colon,> 100 µM
same,TGI,DU-145 prostate,> 100 µM
same,TGI,EKVX NSCLC,> 100 µM
same,TGI,HCC-2998 colon,> 100 µM
same,TGI,HCT-116 colon,> 100 µM
same,TGI,HCT-15 colon,> 100 µM
same,TGI,HL-60(TB) leukemia,> 100 µM
same,TGI,HOP-62 NSCLC,> 100 µM
same,TGI,HOP-92 NSCLC,> 100 µM
same,TGI,HS 578T breast,> 100 µM
same,TGI,HT29 colon,> 100 µM
same,TGI,IGROV1 ovarian,> 100 µM
same,TGI,K-562 leukemia,> 100 µM
same,TGI,KM12 colon,> 100 µM
same,TGI,LOX IMVI melanoma,> 100 µM
same,TGI,M14 melanoma,> 100 µM
same,TGI,MALME-3M melanoma,> 100 µM
same,TGI,MCF7 breast,71.6 µM
same,TGI,MDA-MB-231 breast,> 100 µM
same,TGI,MDA-MB-435,> 100 µM
same,TGI,MDA-N,> 100 µM
same,TGI,MOLT-4 leukemia,> 100 µM
same,TGI,NCI-H226 lung,> 100 µM
same,TGI,NCI-H23 lung,> 100 µM
same,TGI,NCI-H460 lung,> 100 µM
same,TGI,NCI-H522 lung,> 100 µM
same,TGI,NCI/ADR-RES ovarian,> 100 µM
same,TGI,OVCAR-3 ovarian,> 100 µM
same,TGI,OVCAR-4 ovarian,> 100 µM
same,TGI,OVCAR-5 ovarian,> 100 µM
same,TGI,OVCAR-8 ovarian,> 100 µM
same,TGI,PC-3 prostate,> 100 µM
same,TGI,RPMI-8226 leukemia,> 100 µM
same,TGI,RXF 393 renal,> 100 µM
same,TGI,SF-268 CNS,> 100 µM
same,TGI,SF-295 CNS,> 100 µM
same,TGI,SF-539 CNS,> 100 µM
same,TGI,SK-MEL-2 melanoma,> 100 µM
same,TGI,SK-MEL-28 melanoma,> 100 µM
same,TGI,SK-MEL-5 melanoma,> 100 µM
same,TGI,SK-OV-3 ovarian,> 100 µM
same,TGI,SN12C renal,> 100 µM
same,TGI,SNB-19 CNS,> 100 µM
same,TGI,SNB-75 CNS,> 100 µM
same,TGI,SR leukemia,> 100 µM
same,TGI,SW-620 colon,> 100 µM
same,TGI,T-47D breast,> 100 µM
same,TGI,TK-10 renal,> 100 µM
same,TGI,U251 CNS,> 100 µM
same,TGI,UACC-257 melanoma,> 100 µM
same,TGI,UACC-62 melanoma,> 100 µM
same,TGI,UO-31 renal,> 100 µM
